Source: patent publication US20210163929A1, “METHODS AND COMPOSITIONS FOR THE TREATMENT OF HEPATIC AND METABOLIC DISEASES” (The Regents of the University of California, priority 2018, published 2021)
Entries after “also recorded” stand apart in the source; their conditions may differ.

Assays:
[1] = test system: FGF21 signaling and miR-22 in Huh7 cells; assay: mRNA and protein levels in Huh7 cells treated with OCA/INT-747, CDCA, butyrate or RA plus butyrate; type: cell-based, human; settings: CDCA 150 μM
Description: (§1) Cell culture: Huh7 cells were obtained from Japanese Collection of Research Bioresources and maintained in DMEM with 10% FBS. Cells were treated with DMSO, OCA (5 or 20 μM; Apexbio Technology LLC, Houston, Tex., USA) in serum-free media for indicated time. Cells were plated (1×10^6 cells per 60-mm dish, 2×10^5 cells per 6-well plates, and 1×10^5 cells per 24-well plates) overnight prior to treatment or infection.
Gene expression quantification: Total RNA was extracted using TRIzol Reagent (Thermo Fisher Scientific, Waltham, Mass., USA), and cDNA was generated using High Capacity RNA-to-cDNA Kit (Applied Biosysterms, Carlsbad, Calif., USA). qRT-PCR was performed on ABI 7900HT Fast Real-time PCR system using Power SYBR® Green PCR Master Mix (Applied Biosysterms).
(§2) Western blot: Western blot was performed as described previously (26). Antibodies used were anti-FGFR1, FGF21, FASN, phosphor (P)-AMPK, total (T)-AMPK, phosphor (P)-ERK1/2, and total (T)-ERK1/2 (Cell Signaling Technology, Beverly, Mass., USA), β-ACTIN (MilliporeSigma), CD36 (Bioss Antibodies Inc., Woburn, Mass., USA), CYCLIN A2, PGC1α (Novus Biologicals, LLC, Littleton, Colo., USA), and PPARα (Santa Cruz Biotechnology, Santa Cruz, Calif., USA).

miR-22 = settings: published data; cited from earlier work
miR-22 in HCT116 cells [2] = assay: miR-22 induction in HCT116 cells treated with bile acids or HDAC inhibitors; type: cell-based, human; settings: CDCA 150 μM
Description: A time course study in which HCT116 cells were treated by 150 μM CDCA for indicated times. […] Data are presented as mean+/−S.D. * denotes p<0.05.
Data are shown as mean+/−S.D. * p<0.05; ** p<0.01; ***p<0.001.
OCA is a semi-synthetic bile acid, which as the structure of 6α-ethyl-chenodeoxycholic acid.

miR-22 in HCT116 cells [3] = assay: as above; type: cell-based, human; settings: 24 hours, CDCA 50, 100, 150 μM, OCA 25 and 50 μM
[4] = test system: FGF21 signaling in Huh7 cells; assay: Huh7 cells infected/transfected with miR-22 or miR-22 inhibitors, mRNA and Western blot; type: cell-based, human
Text: However, miR-22 was induced in the livers and adipose tissues of WD-fed mice (FIG. 15B). Similarly, using human liver biopsy specimens, miR-22 levels were positively associated with hepatic fat content and inversely correlated with the mRNA levels of PGC-1α, a key regulator of mitochondrial biogenesis (FIG. 15C). […] To study the downstream effects of miR-22, miR-22 mimics (ID: MIMAT0000077, […] (SEQ ID NO:2), Applied Biological Materials Inc.) were used to transfect human liver Huh7 cells.
as §1
(§3) Constructs and luciferase reporter assay: The 3′ untranslated region (3′-UTR) of the FGFR1 gene containing the putative binding site for miR-22 and the entire 3′-UTR of the FGF21 gene (105 bp) was cloned into the psiCHECK2 vector (Promega, Madison, Wis., USA) using NotI and XhoI. For cell infection, adenovirus (negative control), adenoviral-delivered miR-22 (miR-22), or adenoviral-miR-22 inhibitors (SEQ ID NO:1; Applied Biological Materials Inc., Richmond, BC) were used. Forty-eight h post infection, cells were transfected with psiCHECK2-FGR1-3′UTR or psiCHECK2-FGF21 3′UTR using Lipofectamine 2000 (Thermo Fisher Scientific). Twenty-four h later, cells were harvested for firefly and Renilla luciferase assay using the Dual-luciferase Reporter system (Promega). Renilla luciferase activity was standardized to firefly luciferase activity.
as §2

[5] = test system: PPREs in the regulatory region of FGF21; assay: ChIP-qPCR of PPARα and PGC1α occupancy in Huh7 cells; type: cell-based, human; settings: miR-22 overexpression
Description: Chromatin immunoprecipitation (ChIP)-qPCR: ChIP-qPCR was performed based on a previous publication (27). Briefly, chromatin lysate was precleared before incubation with anti-PGC1α (Novus Biologicals) and anti-PPARα (Santa Cruz Biotechnology). IgG (Santa Cruz Biotechnology) and RNA Polymerase II antibody (MilliporeSigma) was used as negative and positive control, respectively. Samples were incubated with Dynase beads at 4° C. overnight followed by de-crosslinking and purification. DNA fragments generated served as templates for qPCR using Power SYBR Green PCR Master Mix.

3′UTR of FGF21 = assay: Luciferase reporter assay, psiCHECK2-FGF21 3′UTR in Huh7 cells; type: cell-based, human; settings: 48 h infection then reporter transfection
Text: as §3

3′UTR of FGFR1 = assay: Luciferase reporter assay, psiCHECK2-FGFR1 3′UTR in Huh7 cells; type: cell-based, human; settings: 48 h infection then reporter transfection
Text: as §3

[6] = test system: mice after 2/3 liver resection; assay: 2/3 liver resection in mice given miR-22 inhibitors or mimics; type: in vivo, mouse; settings: compared to other groups
Description: The data presented in FIGS. 38 and 39 further support the usefulness of miR-22 inhibition. For the experiments used to generate the data in FIG. 38, mice received miR-22 inhibitors or miR-22 mimics via tail vein injection 3 days prior to 2/3 liver resection (1×10^9 pfu in 100 μL saline, one injection per day). Mice were killed on day 0 (immediately after liver resection) or 2 days later.

[7] = test system: Western diet-induced steatosis in C57BL/6 mice; assay: Pilot study in Western diet-fed mice, tail vein adenoviral miR-22 mimics or inhibitors; type: in vivo, mouse
Description: Wild type C57BL/6 mice were fed with a high fat and high sucrose (21.2% fat, 34% sucrose, and 0.2% cholesterol) Western diet (WD) since weaning (3 weeks). When mice were 2.5 months old, they received adenoviral-delivery of miR-22 mimics or miR-22 inhibitors (i.e., SEQ ID NO:1) via tail vein injection (1×10^9 PFU/100 μl saline, 3 doses in 10 days). […] In addition, hepatic Pgc1α mRNA level was reduced by miR-22 mimics, but increased by miR-22 inhibitors (FIG. 10).
To further analyze the role miR-22 in regulating hepatic metabolism, we have done pilot studies to test the effect of miR-22 in non-alcoholic and alcoholic steatohepatitis. Steatosis was induced by feeding mice with a WD that has high fat and high sucrose content since weaning (3-weeks old). After 2 months of differential diet feeding, mild steatosis was found in WD-fed mice. Then, those WD-fed mice received adenoviral-control, adenoviral-delivered miR-22 mimics, or miR-22 inhibitors (i.e., SEQ ID NO:1) via tail vein injection (1×10^9 pfu/200 μl, 3 doses, weekly) while continuing a WD. […] These exciting findings indicate that forced miR-22 expression in WD-fed mice potentially can be a novel NASH model.

[8] = test system: HDAC1, HDAC4 and CYCLIN A2 in Huh7 and HCT116 cells; assay: Deacetylase protein levels after miR-22 in Huh7 and HCT116 cells; type: cell-based, human
[9] = test system: alcohol-induced steatosis in C57BL/6 mice; assay: Alcohol-induced steatosis in mice treated with adenoviral miR-22 inhibitors; type: in vivo, mouse; settings: FIG. 29E
Description: We performed another pilot experiment to test the effect of miR-22 inhibitors in reducing alcohol-induced steatosis. The same method described above for FIG. 2C was used to induce steatosis followed by miR-22 inhibitor treatment through tail vein injection.
Additionally, alcohol was used to induce fatty liver. Mice were on Liber DeCarli liquid diet supplemented with 5% alcohol for 3 weeks followed by delivery of adenoviral-control and adenoviral-miR-22 inhibitors using the same methods described above. During the interventions, mice continued having alcohol-supplemented liquid diet.
3-month old WT male mice were fed with Liber DeCarli diet with 5% alcohol supplementation for 3 weeks followed by adenovirus delivery of miR-22 inhibitor (1×10^9PFU) through tail vein injection (3 times in 10 days). The empty adenovirus was used as a negative control. The mice were killed 1 day after the last injection. Steatosis scored was graded on a scale of a scale of 0 (<5%), 1 (5-33%), 2 (34-66%), and 3 (>66%). […]
Biochemical analysis: Hepatic triglyceride and cholesterol (BioAssay Systems, Hayward, Calif., USA) levels and serum lipopolysaccharide (LPS) (Thermo Fisher Scientific), alanine transaminase (ALT) (Pointe Scientific), and alkaline phosphatase (ALP) (Pointe Scientific) levels were quantified according to the manufacturer's instructions.

[10] = WD-fed C57BL/6 mice 2.5 months old, tail vein 1×10^9 PFU/100 μl, 3 doses in 10 days

C[C@H](CCC(=O)O)[C@H]1CC[C@H]2[C@@H]3[C@H](O)C[C@@H]4C[C@H](O)CC[C@]4(C)[C@H]3CC[C@]12C [CDCA, chenodeoxycholic acid]
FGF21 and miR-22 levels [1]: induced FGF21 and miR-22 levels | miR-22 induction (miR-22): induced | FGF21 and miR-22 levels (miR-22 in HCT116 cells [2]): induced FGF21 and miR-22 levels | miR-22 level (miR-22 in HCT116 cells [3]): induced miR-22

miR-22 mimics: miR-22 mimics (ID: MIMAT0000077, AAGCUGCCAGUUGAAGAACUGU, SEQ ID NO:2), transfected or adenoviral-delivered (chemistry not given here; listed as Homo sapiens)
expression of βKlotho [4]: did not affect the expression of βKlotho | total AMPK [4]: had no effect on total AMPK | PPARα and PGC1α protein levels ([4]; 48 h post infection): reduced PPARα and PGC1α | AMPK and ERK1/2 activation (P-AMPK, P-ERK1/2) ([4]; miR-22 overexpression): AMPK and ERK1/2 deactivation | FGF21 and FGFR1 (SIRT1, p-AMPK) levels ([4]; miR-22 overexpression): reduced the protein level of FGF21, FGFR1 and p-AMPK; also recorded: reduced the protein level of FGF21, FGFR1, and SIRT1 | FGF21 and FGFR1 (SIRT1, p-AMPK) levels ([4]; miR-22 overexpression, listed as miR-22): reduced FGF21 and FGFR1 at both mRNA and protein levels | occupancy of PPARα and PGC1α in the two PPREs of FGF21 [5]: substantially reduced | luciferase activity driven by FGF21 3′UTR (3′UTR of FGF21): neither miR-22 nor miR-22 inhibitors changed the luciferase activity | luciferase activity driven by FGFR1 3′UTR (3′UTR of FGFR1): decreased the luciferase activity | liver-to-body weight ratio and fat-to-body weight ratio [6]: substantially higher | hepatic Pgc1α mRNA level [7, 10]: reduced | hepatic lymphocyte infiltration [7, 10]: induced hepatic lymphocyte infiltration | severity of steatosis / hepatic fat content [7, 10]: increased the severity of steatosis | liver histology (hepatic fat content, lymphocyte infiltration) ([7]; WD-fed mice after 2 months of diet, tail vein 1×10^9 pfu/200 μl, 3 doses, weekly): increased hepatic fat content and lymphocyte infiltration | protein level of HDAC1, HDAC4 and CYCLIN A2 [8]: reduced the protein level of HDAC1 and HDAC4 as well as CYCLIN A2 | hepatic gene expression (PGC1α, CPT1, SREBP-1c, FASN, TNFα) [9]: reduced PGC1α and CPT1, but increased SREBP-1c, FASN, and TNFα
